From US20250332125A1, “TREATMENT OF MODERATE AND SEVERE GASTROPARESIS” (priority 2016, published 2025)

Columns and labels:
Format in all cases: in vivo, human
[1] = system: adult female subjects with diabetic gastroparesis; assay: Phase 3 multicenter, randomized, double-blind, placebo-controlled study of metoclopramide nasal spray: symptom efficacy (GSA scores); set-up: Estimated Mean Change from Baseline in Mean Daily GSA Total Scores (LSMean from ANCOVA) / Mean Change from Baseline in Mean Daily Nausea Score (LSMean from ANCOVA): scale not given here; settings: for Mean Change from Baseline in Mean Daily Nausea Score (LSMean from ANCOVA) / Mean Change from Baseline in Mean Daily Upper Abdominal Pain Score (LSMean from ANCOVA): ITT Population with Moderate to Severe Symptoms; for Estimated Mean Change from Baseline in Mean Daily GSA Total Scores (LSMean from ANCOVA): Baseline GSA >2.7 (BOCF)
Method: A multicenter, randomized, double-blind, placebo-controlled clinical study of intranasal metoclopramide (“IN MCP”) in female diabetic gastroparesis patients was carried out. The study explored the use of IN MCP for the relief of symptoms associated with acute and recurrent diabetic gastroparesis in adult women. […] The study was a U.S. multicenter, randomized, double-blind, placebo-controlled, parallel-group study of the efficacy and safety of IN MCP compared to placebo in adult female subjects with diabetic gastroparesis. Diabetic women with clinical symptoms attributed to diabetic gastroparesis, and documentation of delayed gastric emptying who met the protocol-specified entry criteria were randomized 1:1 in a parallel-group design to IN MCP (10 mg metoclopramide) or placebo administered as a single nasal spray four times daily; 30 minutes before meals and at bedtime for a total of four weeks. Eligible patients received a dose of IN MCP or placebo 30 minutes before meals and at bedtime daily. A total of 205 female gastroparesis patients were enrolled. Of the total, nearly half had been identified as having moderate to severe gastroparesis. […] Diabetic women with clinical symptoms attributed to diabetic gastroparesis and documentation of delayed gastric emptying who met the protocol-specified entry criteria were randomized to Metoclopramide Nasal Spray 10 mg or placebo administered as a single intranasal spray four (4) times daily; 30 minutes before meals and at bedtime for a total of four (4) weeks. Inclusion criteria included prior diagnosis of Type 1 or Type 2 diabetes, and diagnosis of diabetic gastroparesis with delayed gastric emptying. […]

[2] = Tardive dyskinesia reports over the clinical development program; settings: 1,311 exposed healthy volunteers and patients over the clinical development program
[3] = Phase 3 study of metoclopramide nasal spray: safety, treatment-emergent adverse events
Method: The study was a U.S. multicenter, randomized, double-blind, placebo-controlled, parallel-group study of the efficacy and safety of IN MCP compared to placebo in adult female subjects with diabetic gastroparesis. Diabetic women with clinical symptoms attributed to diabetic gastroparesis, and documentation of delayed gastric emptying who met the protocol-specified entry criteria were randomized 1:1 in a parallel-group design to IN MCP (10 mg metoclopramide) or placebo administered as a single nasal spray four times daily; 30 minutes before meals and at bedtime for a total of four weeks. Eligible patients received a dose of IN MCP or placebo 30 minutes before meals and at bedtime daily.
Diabetic women with clinical symptoms attributed to diabetic gastroparesis and documentation of delayed gastric emptying who met the protocol-specified entry criteria were randomized to Metoclopramide Nasal Spray 10 mg or placebo administered as a single intranasal spray four (4) times daily; 30 minutes before meals and at bedtime for a total of four (4) weeks.

[4] = Week 1, 10 mg intranasal four times daily, N = 52
[5] = Week 2, 10 mg intranasal four times daily, N = 52
[6] = Week 3, 10 mg intranasal four times daily, N = 52
[7] = Week 4, 10 mg intranasal four times daily, N = 52
[8] = 10 mg intranasal four times daily, 4 weeks, N = 102

Structure (SMILES): CCN(CC)CCNC(=O)c1cc(Cl)c(N)cc1OC [IN MCP, 4-amino-5-chloro-N-[2-(diethylamino)ethyl]-2-methoxybenzamide]
- Mean Change from Baseline in Mean Daily Nausea Score (LSMean from ANCOVA) [1, 4]: −0.859
- Mean Change from Baseline in Mean Daily Upper Abdominal Pain Score (LSMean from ANCOVA) [1, 4]: −0.641
- Mean Change from Baseline in Mean Daily Nausea Score (LSMean from ANCOVA) [1, 5]: −1.149
- Mean Change from Baseline in Mean Daily Upper Abdominal Pain Score (LSMean from ANCOVA) [1, 5]: −0.990
- Mean Change from Baseline in Mean Daily Nausea Score (LSMean from ANCOVA) [1, 6]: −1.242
- Mean Change from Baseline in Mean Daily Upper Abdominal Pain Score (LSMean from ANCOVA) [1, 6]: −1.194
- Mean Change from Baseline in Mean Daily Nausea Score (LSMean from ANCOVA) [1, 7]: −1.404
- Mean Change from Baseline in Mean Daily Upper Abdominal Pain Score (LSMean from ANCOVA) [1, 7]: −1.218
- Estimated Mean Change from Baseline in Mean Daily GSA Total Scores (LSMean from ANCOVA) ([1]; ITT, Week 1, 10 mg intranasal four times daily, N = 52): −0.588
- Estimated Mean Change from Baseline in Mean Daily GSA Total Scores (LSMean from ANCOVA) ([1]; ITT, Week 2, 10 mg intranasal four times daily, N = 52): −0.950
- Estimated Mean Change from Baseline in Mean Daily GSA Total Scores (LSMean from ANCOVA) ([1]; ITT, Week 3, 10 mg intranasal four times daily, N = 52): −1.096
- Estimated Mean Change from Baseline in Mean Daily GSA Total Scores (LSMean from ANCOVA) ([1]; ITT, Week 4, 10 mg intranasal four times daily, N = 52): −1.220
- Estimated Mean Change from Baseline in Mean Daily GSA Total Scores (LSMean from ANCOVA) ([1]; Per Protocol, Week 1, 10 mg intranasal four times daily, N = 38): −0.623
- Estimated Mean Change from Baseline in Mean Daily GSA Total Scores (LSMean from ANCOVA) ([1]; Per Protocol, Week 2, 10 mg intranasal four times daily, N = 38): −1.040
- Estimated Mean Change from Baseline in Mean Daily GSA Total Scores (LSMean from ANCOVA) ([1]; Per Protocol, Week 3, 10 mg intranasal four times daily, N = 38): −1.286
- Estimated Mean Change from Baseline in Mean Daily GSA Total Scores (LSMean from ANCOVA) ([1]; Per Protocol, Week 4, 10 mg intranasal four times daily, N = 38): −1.373
- Efficacy versus placebo, change from baseline ([1]; all enrolled patients across all severities of disease (205 female patients), 10 mg intranasal q.i.d.): no statistically significant change from baseline in efficacy versus placebo
- Efficacy compared to placebo ([1]; mild gastroparesis, intranasal, same treatment regimen): did not demonstrate statistically significant efficacy
- Improvements in nausea and abdominal pain ([1]; patient segment with moderate to severe symptoms of gastroparesis, versus placebo): clinically and statistically significant improvements
- Efficacy versus placebo (post-hoc analysis) ([1]; patients who entered the study with moderate to severe gastroparesis, 10 mg intranasal q.i.d.): statistically significant efficacy
- Reports of tardive dyskinesia [2]: no reports of tardive dyskinesia
- Treatment-Emergent Adverse Event Epistaxis, number of subjects [3, 8]: 1 (1%)
- Treatment-Emergent Adverse Event Epistaxis, percent of subjects [3, 8]: 1 (1%)
- Treatment-Emergent Adverse Event Fatigue, number of subjects [3, 8]: 2 (2%)
- Treatment-Emergent Adverse Event Fatigue, percent of subjects [3, 8]: 2 (2%)
- Treatment-Emergent Adverse Event Headache, number of subjects [3, 8]: 5 (5%)
- Treatment-Emergent Adverse Event Headache, percent of subjects [3, 8]: 5 (5%)
- Treatment-Emergent Adverse Event Nasal discomfort, number of subjects [3, 8]: 1 (1%)
- Treatment-Emergent Adverse Event Nasal discomfort, percent of subjects [3, 8]: 1 (1%)
- Central nervous system (CNS) effects that have been associated with oral and parenteral metoclopramide ([3]; delivered as a nasal spray): no central nervous system (CNS) effects observed
- Drug-related adverse effects ([3]; intranasal): no reported drug-related adverse effects
- Overall safety results ([3]; nasal spray 10 mg four times daily, 4 weeks): no significant adverse effects
